Test results from patent US20260130917A1, “ANTIVIRAL COMPOSITION FOR CORONAVIRUS OR INFLUENZA VIRUS, USING NATURAL PRODUCTS, AND USE THEREOF” (priority 2022, published 2026).

Assays:
[1] = tested on: SARS-CoV-2 (βCoV/KOR/KCDC03/2020); test: microbe, parasite or virus in culture; conditions: Severe acute respiratory syndrome coronavirus 2, Vero
[2] = tested on: SARS-CoV-2 (βCoV/KOR/KCDC03/2020); test: in vitro; conditions: human
[3] = tested on: SARS-CoV-2 (βCoV/KOR/KCDC03/2020); test: microbe, parasite or virus in culture; conditions: Severe acute respiratory syndrome coronavirus 2, Calu-3
in vitro [4] = conditions: monkey
in vitro [5] = conditions: human
[6] = tested on: SARS-CoV-2 (βCoV/KOR/KCDC03/2020); test: in vitro; conditions: monkey
[7] = tested on: SARS-CoV-2 spike pseudovirus particles; test: organism not typed; format: cell-based
[8] = tested on: influenza B B/Brisbane/60/2008; test: Antiviral activity against influenza virus in MDCK cells; format: cell-based, influenza B virus; conditions: concentration of 6.3 μM
[9] = tested on: influenza A H3N2 A/Hong Kong/4801/2014; test: as above; format: cell-based, influenza A virus; conditions: concentration of 6.3 μM
[10] = tested on: SARS-CoV-2 virus (B CoV/Korea/KCDC03/2020, NCCP43326); test: Time-of-addition assay in Vero cells; format: cell-based; conditions: 50 μM, MOI 3
[11] = tested on: influenza A H1N1 A/California/07/2009; test: Antiviral activity against influenza virus in MDCK cells; format: cell-based, influenza A virus; conditions: concentration of 6.3 μM
[12] = tested on: SARS-CoV-2 βCoV/Korea/KCDC03/2020, NCCP43326; test: Efficacy in SARS-CoV-2 infected hACE2 transgenic mice (lung virus titer and viral RNA); format: in vivo; conditions: orally at 50 mg/kg, once a day three times, lungs on third day

SMILES: CCOC(=O)c1c(C(C)(C)C)oc2ccc(OC(=O)c3ccc(OC)cc3)cc12 [MolPort-000-424-809, Ethyl 2-tert-butyl-5-(4-methoxybenzoyloxy)-1-benzofuran-3-carboxylate]
- IC50 [1]: 31.2 µM
- selectivity ratio [2]: 1.97
- IC50 [3]: 50.7 µM
- CC50 (in vitro [4]): > 100 µM
- CC50 (in vitro [5]): > 100 µM

SMILES: c1ccc(Oc2cccc(OCCCN3CCCCC3c3cccnc3)c2)cc1 (stereo not shown) [MolPort-000-829-850, 3-{1-[3-(3-phenoxyphenoxy)propyl]piperidin-2-yl}pyridine and oxalic acid]
- IC50 [1]: 15.6 µM
- selectivity ratio [6]: 2.08
- CC50 (in vitro [4]): 32.4 µM

SMILES: CCCCCCCC/C=C\CCCCCCCC(=O)O [MolPort-001-788-274, (9Z)-octadec-9-enoic acid]
- IC50 [1]: 67.9 µM
- CC50 (in vitro [4]): > 100 µM

SMILES: CCCCC/C=C\C/C=C\CCCCCCCC(=O)O [MolPort-001-788-459, (9Z,12Z)-octadeca-9,12-dienoic acid]
- IC50 [1]: 37.6 µM
- CC50 (in vitro [4]): > 100 µM

SMILES: CC(C)(C)c1cc(CCCOC(=O)CNc2ccccc2)cc(C(C)(C)C)c1O [MolPort-002-151-168, 3-(3,5-di-tert-butyl-4-hydroxyphenyl)propyl 2-(phenylamino)acetate]
- IC50 [1]: 23.5 µM
- selectivity ratio [2]: 1.65
- IC50 [3]: 60.7 µM
- CC50 (in vitro [4]): > 100 µM
- CC50 (in vitro [5]): > 100 µM

SMILES: CC(C)(C)c1cc(CCCOC(=O)CNC2CCCCC2)cc(C(C)(C)C)c1O [MolPort-002-152-403, 3-(3,5-di-tert-butyl-4-hydroxyphenyl)propyl 2-(cyclohexylamino)acetate]
- IC50 [1]: 32.5 µM
- selectivity ratio [6]: 1.73
- CC50 (in vitro [4]): 56.2 µM

SMILES: CCCCCCCCC1OCC(OC(=O)c2ccc(OC)cc2)CO1 (stereo not shown) [MolPort-002-515-990, 2-octyl-1,3-dioxan-5-yl 4-methoxybenzoate]
- IC50 [1]: 24.6 µM
- selectivity ratio [2]: 1.92
- IC50 [3]: 52.2 µM
- CC50 (in vitro [4]): > 100 µM
- CC50 (in vitro [5]): > 100 µM

SMILES: O=C(OC[C@@H]1CCCN2CCCC[C@H]12)c1ccc(CSCc2ccccc2)o1 [MolPort-002-520-573, [(1R,9aR)-octahydro-1H-quinolizin-1-yl]methyl 5-[(benzylsulfanyl)methyl]furan-2-carboxylate]
- IC50 [1]: 28.5 µM
- selectivity ratio [6]: 2.04
- CC50 (in vitro [4]): 58 µM

SMILES: CCCc1cc2c3c(c(=O)oc2cc1OC(=O)CNC(=O)OCc1ccccc1)CCC3 [MolPort-002-526-563, 4-oxo-8-propyl-1H,2H,3H,4H-cyclopenta[c]chromen-7-yl 2-{[(benzyloxy)carbonyl]amino}acetate]
- IC50 [1]: 28.7 µM
- selectivity ratio [6]: 1.16
- CC50 (in vitro [4]): 33.4 µM

SMILES: O=C(NCCc1ccccc1)c1cc2c([nH]c3ccccc32)c(CCc2ccccc2)n1 [MolPort-002-526-760, N,1-bis(2-phenylethyl)-9H-pyrido[3,4-b]indole-3-carboxamide]
- IC50 [1]: 25.8 µM
- selectivity ratio [6]: 1.63
- CC50 (in vitro [4]): 42.2 µM

SMILES: CCCCCCCc1ccc(C(=O)Oc2ccc(C(=O)O)cc2)cc1 [MolPort-003-709-991, 4-(4-heptylbenzoyloxy)benzoic acid]
- IC50 [1]: 43.3 µM
- CC50 (in vitro [4]): > 100 µM

SMILES: CCCCCCCOC(=O)c1ccc(OC(=O)c2cccnc2)cc1 [MolPort-003-711-757, 4-[(heptyloxy)carbonyl]phenyl pyridine-3-carboxylate]
- IC50 [1]: 24.3 µM
- selectivity ratio [6]: 2.02
- CC50 (in vitro [4]): 49 µM

SMILES: CCCCCCCc1ccc(C(=O)Oc2ccc(SC)cc2)cc1 [MolPort-003-713-147, 4-(methylsulfanyl)phenyl 4-heptylbenzoate]
- IC50 [1]: 94.4 µM
- CC50 (in vitro [4]): > 100 µM

SMILES: CCCCCCCOC(=O)c1ccc(OC(=O)c2cncc(Br)c2)cc1 [MolPort-003-713-431, 4-[(heptyloxy)carbonyl]phenyl 5-bromopyridine-3-carboxylate]
- IC50 [1]: 57.5 µM
- CC50 (in vitro [4]): > 100 µM

SMILES: CC/C=C\C/C=C\C/C=C\C/C=C\C/C=C\C/C=C\CCC(=O)O [MolPort-003-932-890, (4Z,7Z,10Z,13Z,16Z,19Z)-docosa-4,7,10,13,16,19-hexaenoic acid]
- IC50 [1]: 58.6 µM
- selectivity ratio [6]: 1.06
- CC50 (in vitro [4]): 62.4 µM

SMILES: CC/C=C\C/C=C\C/C=C\C/C=C\C/C=C\CCCC(=O)O [MolPort-003-933-180, (5Z,8Z,11Z,14Z,17Z)-icosa-5,8,11,14,17-pentaenoic acid]
- IC50 [1]: 41.8 µM
- selectivity ratio [6]: 1.69
- CC50 (in vitro [4]): 70.5 µM

SMILES: CC/C=C\C/C=C\C/C=C\CCCCCCCC(=O)O [MolPort-003-937-817, (9Z,12Z,15Z)-octadeca-9,12,15-trienoic acid]
- IC50 [1]: 58.6 µM
- selectivity ratio [6]: 1.71
- CC50 (in vitro [4]): > 100 µM

SMILES: CCCCCC[C@@H](O)C/C=C\CCCCCCCC(=O)O [MolPort-003-939-239, (9Z,12R)-12-hydroxyoctadec-9-enoic acid]
- IC50 [1]: 60.5 µM
- CC50 (in vitro [4]): > 100 µM

SMILES: CCCCCCCCCCC#CC#CCCCCCCCCC(=O)O [MolPort-003-939-688, tricosa-10,12-diynoic acid]
- IC50 [1]: 29.9 µM
- selectivity ratio [2]: 1.19
- IC50 [3]: 83.8 µM
- CC50 (in vitro [4]): > 100 µM
- CC50 (in vitro [5]): > 100 µM

SMILES: O=C(C[C@@H]1CCNC[C@@H]1Cc1cc(COc2ccccc2)on1)NCc1ccc(F)cc1 [MolPort-005-947-745, N-[(4-fluorophenyl)methyl]-2-[(3R,4S)-3-{[5-(phenoxymethyl)-1,2-oxazol-3-yl]methyl}piperidin-4-yl]acetamide]
- IC50 [1]: 24.3 µM
- selectivity ratio [6]: 1.43
- CC50 (in vitro [4]): 34.7 µM

SMILES: O=C(CCCNC(=O)c1cc2ccccc2o1)NCCc1c[nH]c2ccccc12 [MolPort-005-974-761, 4-[(1-benzofuran-2-yl)formamido]-N-[2-(1H-indol-3-yl)ethyl]butanamide]
- IC50 [1]: 71.3 µM
- CC50 (in vitro [4]): > 100 µM

SMILES: CCCCCOc1cccc(/C=C/C23N=C(O)CCN2c2ccccc2C3(C)C)c1 (stereo not shown) [MolPort-005-980-235, 10,10-dimethyl-10a-[(1E)-2-[3-(pentyloxy)phenyl]ethenyl]-3H,4H,10H,10aH-pyrimido[1,2-a]indol-2-ol]
- IC50 [1]: 8.49 µM
- selectivity ratio [2]: 6.42
- IC50 [3]: 15.6 µM
- IC50 ([7]; 48 h): 27.5 µM
- inhibition at 50 µM ([7]; Severe acute respiratory syndrome coronavirus 2, read-out: inhibition of intracellular entry of the SARS-CoV-2 virus): ~90%
- CC50 (in vitro [4]): > 100 µM
- antiviral activity [8]: about 50%
- antiviral activity [9]: about 90%
- virus infection pattern ([10]; treated 1 hour after virus infection): virus infection could not be prevented
- virus infection pattern ([10]; treated 1 hour before virus infection or simultaneously with the virus): virus infection did not occur
- antiviral activity [11]: about 90%
- viral RNA in the lungs [12]: decreased at a statistically significant level
- viral titer (TCID50) in the lungs [12]: tended to decrease

SMILES: CC/C=C/C/C=C/C/C=C/C/C=C/C/C=C/C/C=C\CCC(=O)O [MolPort-008-266-638, (4Z,7E,10E,13E,16E,19E)-docosa-4,7,10,13,16,19-hexaenoic acid]
- IC50 [1]: 28.2 µM
- selectivity ratio [6]: 1.29
- CC50 (in vitro [4]): 36.2 µM

SMILES: CC(C)CCC(CCNCc1ccc(OC(C)C)cc1)C1CCOC(C)(C)C1 (stereo not shown) [MolPort-009-758-577, [3-(2,2-dimethyloxan-4-yl)-6-methylheptyl]({[4-(propan-2-yloxy)phenyl]methyl})amine and oxalic acid]
- IC50 [1]: 7.94 µM
- selectivity ratio [6]: 1.83
- CC50 (in vitro [4]): 14.5 µM

SMILES: O=C(NC[C@@H]1CCCN2CCCC[C@H]12)c1cccc(-c2cc3ccccc3oc2=O)c1 [MolPort-027-564-039, N-{[(1S,9aR)-octahydro-1H-quinolizin-1-yl]methyl}-3-(2-oxo-2H-chromen-3-yl)benzamide]
- IC50 [1]: 23.3 µM
- CC50 (in vitro [4]): > 100 µM

SMILES: O=C(Cn1ccc2ccc(OCc3ccccc3)cc21)NC[C@@H]1CCCN2CCCC[C@H]12 [MolPort-027-564-475, N-{[(1S,9aR)-octahydro-1H-quinolizin-1-yl]methyl}-2-[6-(benzyloxy)-1H-indol-1-yl]acetamide]
- IC50 [1]: 18.5 µM
- selectivity ratio [6]: 1.85
- CC50 (in vitro [4]): 34.3 µM
